Experimental findings from article PMC12344758, “Qsarna: An Online Tool for Smart Chemical Space Navigation in Drug Design” (Journal of Chemical Information and Modeling, 2025) are described below.

For the first test, the target named is T1, MAO-B (Homo sapiens, UniProt P27338).
T1 construct: purchased Merck MAK296
T1 sequence (P27338 1-520): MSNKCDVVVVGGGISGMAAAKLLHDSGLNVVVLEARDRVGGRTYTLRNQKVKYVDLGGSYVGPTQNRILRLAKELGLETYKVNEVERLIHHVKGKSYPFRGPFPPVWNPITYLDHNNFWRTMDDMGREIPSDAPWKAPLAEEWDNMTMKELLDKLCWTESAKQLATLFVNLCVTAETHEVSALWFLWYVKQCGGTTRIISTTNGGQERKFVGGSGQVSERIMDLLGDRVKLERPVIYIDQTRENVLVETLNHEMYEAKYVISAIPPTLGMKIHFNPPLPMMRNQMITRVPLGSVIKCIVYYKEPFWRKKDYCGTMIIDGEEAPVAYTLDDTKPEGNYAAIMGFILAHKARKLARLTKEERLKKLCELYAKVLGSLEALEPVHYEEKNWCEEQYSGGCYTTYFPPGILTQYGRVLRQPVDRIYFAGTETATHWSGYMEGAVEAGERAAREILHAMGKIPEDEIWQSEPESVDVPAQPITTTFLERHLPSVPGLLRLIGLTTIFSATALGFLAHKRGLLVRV
Description: Monoamine Oxidase-B Inhibitor Screening Kit (Merck, MAK296), fluorometric assay. The format is biochemical. Conditions: concentration 1 uM. The protocol: (§1) The experimental details for determining IC50 are presented in Supporting Information B.
(§2) To evaluate the IC50 of inhibitors, two fluorometric assays were used: the Monoamine Oxidase-A Inhibitor Screening Kit and the Monoamine Oxidase-B Inhibitor Screening Kit (Merck), according to the manufacturer’s protocol. The Echo dose-response software was used to prepare the plates. The compounds were tested at 10 concentrations, starting from 100 µM with a dilution factor of 3.16. All compounds were tested in duplicate in a final concentration of 1% of DMSO. Using a Mantis Liquid Dispenser (Formulatrix), 12.5 µL of protein was added to each tested compound (final concentration of 56 nM) and incubated for 60 minutes at 25°C (MAO-A) or 60 minutes at 37°C (MAO-B). Subsequently, the enzymatic reaction was initiated by adding 10 µL of substrate per well, followed by incubation for 60 minutes at 25°C (MAO-A) or 60 minutes at 37°C (MAO-B). The fluorescence intensity was measured using a plate reader (BioTek Synergy H1) with the following settings: excitation at 535 nm and emission at 587 nm. The data were normalized against low control (assay buffer […]
(§3) (1 picture or pasted object on this page, not shown here) […]
(§4) containing substrate) and high control (protein and substrate). The results were presented as a percentage of inhibition. […]
Take `Fc1ccc(-c2ccc3c(c2)[nH]c2ccncc23)cn1` [MolPort-044-831-708]: the inhibition at 1 µM came to 5.64%.

For `COc1ccc(C2=NN(C(C)=O)C(c3ccccc3)C2)c(O)c1` (stereo not shown) [MolPort-000-773-355], the inhibition at 1 µM was found to be 0%.

As for `Cc1c(-c2ccccc2)c(=O)oc2cc(OS(=O)(=O)c3ccc(Br)cc3)ccc12` [MolPort-000-479-802], the inhibition at 1 µM is 0%.

As for `CC(=O)Nc1ccc2c(c1)-c1ccccc1C2=O` [MolPort-001-824-101], the inhibition at 1 µM amounted to 0%.

With `Cc1nnc2c(Cc3ccccc3)nc3ccccc3n12` [Molport-002-872-748], the inhibition at 1 µM came to 0%.

On to `O=C(Cn1c(=O)oc2ccccc21)Nc1nnc(SCc2ccccc2)s1` [MolPort-001-610-534], for which the inhibition at 1 µM was found to be 0%.

As for `CCc1ccc(Nc2ncc3c(n2)CC(C)CC3=O)cc1` (stereo not shown) [MolPort-000-511-281], the inhibition at 1 µM is 40%.

Consider `Cc1nc(Nc2ncc3c(n2)CC(C)CC3=O)nc2ccccc12` (stereo not shown) [MolPort-000-510-622], for which the inhibition at 1 µM was 0%.

Turning to `CC(=O)NCC1CN(c2ccc(N3CCOCC3)c(F)c2)C(=O)O1` (stereo not shown) [MolPort-002-744-025], the inhibition at 1 µM is 59%.

Still in this test, the particulars now being: concentration 10 uM.
Take `Fc1ccc(-c2ccc3c(c2)[nH]c2ccncc23)cn1` [MolPort-044-831-708]: the inhibition at 10 µM was found to be 37.9%.

Take `COc1ccc(C2=NN(C(C)=O)C(c3ccccc3)C2)c(O)c1` (stereo not shown) [MolPort-000-773-355]: the inhibition at 10 µM stood at 0%.

As to `Cc1c(-c2ccccc2)c(=O)oc2cc(OS(=O)(=O)c3ccc(Br)cc3)ccc12` [MolPort-000-479-802], the inhibition at 10 µM worked out at 0%.

Consider `CC(=O)Nc1ccc2c(c1)-c1ccccc1C2=O` [MolPort-001-824-101], for which the inhibition at 10 µM came to 0%.

As for `Cc1nnc2c(Cc3ccccc3)nc3ccccc3n12` [Molport-002-872-748], the inhibition at 10 µM came to 0%.

As to `O=C(Cn1c(=O)oc2ccccc21)Nc1nnc(SCc2ccccc2)s1` [MolPort-001-610-534], the inhibition at 10 µM was 0%.

As to `CCc1ccc(Nc2ncc3c(n2)CC(C)CC3=O)cc1` (stereo not shown) [MolPort-000-511-281], the inhibition at 10 µM stood at 83.7%.

For `Cc1nc(Nc2ncc3c(n2)CC(C)CC3=O)nc2ccccc12` (stereo not shown) [MolPort-000-510-622], the inhibition at 10 µM amounted to 21%.

Consider `CC(=O)NCC1CN(c2ccc(N3CCOCC3)c(F)c2)C(=O)O1` (stereo not shown) [MolPort-002-744-025], for which the inhibition at 10 µM is 81%.

The test is the same for the next values; noted with them: concentration 100 uM.
Regarding `Fc1ccc(-c2ccc3c(c2)[nH]c2ccncc23)cn1` [MolPort-044-831-708], the inhibition at 100 µM was found to be 81.3%.

For `COc1ccc(C2=NN(C(C)=O)C(c3ccccc3)C2)c(O)c1` (stereo not shown) [MolPort-000-773-355], the inhibition at 100 µM is 0%.

For `Cc1c(-c2ccccc2)c(=O)oc2cc(OS(=O)(=O)c3ccc(Br)cc3)ccc12` [MolPort-000-479-802], the inhibition at 100 µM came out at 27.3%.

As to `CC(=O)Nc1ccc2c(c1)-c1ccccc1C2=O` [MolPort-001-824-101], the inhibition at 100 µM amounted to 27.7%.

As for `Cc1nnc2c(Cc3ccccc3)nc3ccccc3n12` [Molport-002-872-748], the inhibition at 100 µM was found to be 0%.

Take `O=C(Cn1c(=O)oc2ccccc21)Nc1nnc(SCc2ccccc2)s1` [MolPort-001-610-534]: the inhibition at 100 µM turned out to be 0%.

In the case of `CCc1ccc(Nc2ncc3c(n2)CC(C)CC3=O)cc1` (stereo not shown) [MolPort-000-511-281], the inhibition at 100 µM was 96.4%.

In the case of `Cc1nc(Nc2ncc3c(n2)CC(C)CC3=O)nc2ccccc12` (stereo not shown) [MolPort-000-510-622], the inhibition at 100 µM worked out at 77.5%.

Take `CC(=O)NCC1CN(c2ccc(N3CCOCC3)c(F)c2)C(=O)O1` (stereo not shown) [MolPort-002-744-025]: the inhibition at 100 µM was 97.3%.

Still in this test, the particulars now being: secondary screen, 10 concentrations from 100 µM, duplicate.
For `Fc1ccc(-c2ccc3c(c2)[nH]c2ccncc23)cn1` [MolPort-044-831-708], the IC50 is 11900 nM.

For the compound `CCc1ccc(Nc2ncc3c(n2)CC(C)CC3=O)cc1` (stereo not shown) [MolPort-000-511-281], the IC50 came to 66.1 nM.

As for `CC(=O)NCC1CN(c2ccc(N3CCOCC3)c(F)c2)C(=O)O1` (stereo not shown) [MolPort-002-744-025], the IC50 is 460 nM.

The next test concerns the target T2, MAO-A (Homo sapiens, UniProt P21397).
T2 construct: purchased Merck MAK295
T2 sequence (P21397 1-527): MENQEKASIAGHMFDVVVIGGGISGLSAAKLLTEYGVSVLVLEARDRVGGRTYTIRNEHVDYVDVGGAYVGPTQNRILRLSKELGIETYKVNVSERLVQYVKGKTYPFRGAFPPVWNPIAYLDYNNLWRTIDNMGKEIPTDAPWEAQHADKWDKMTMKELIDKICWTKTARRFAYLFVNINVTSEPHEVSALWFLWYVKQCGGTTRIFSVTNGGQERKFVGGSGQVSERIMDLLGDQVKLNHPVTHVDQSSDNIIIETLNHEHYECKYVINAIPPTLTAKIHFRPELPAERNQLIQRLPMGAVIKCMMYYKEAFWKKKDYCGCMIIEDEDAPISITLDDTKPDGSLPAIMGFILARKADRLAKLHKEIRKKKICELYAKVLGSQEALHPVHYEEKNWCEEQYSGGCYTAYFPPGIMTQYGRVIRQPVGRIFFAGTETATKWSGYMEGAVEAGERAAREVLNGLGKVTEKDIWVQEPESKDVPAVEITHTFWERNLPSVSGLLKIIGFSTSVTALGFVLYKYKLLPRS
Nature of the test: Monoamine Oxidase-A Inhibitor Screening Kit (Merck, MAK295), fluorometric assay. The format is biochemical. Conditions: concentration 1 uM. Here is the method: as §1, §2, §3, §4
Take `COc1ccc(C2=NN(C(C)=O)C(c3ccccc3)C2)c(O)c1` (stereo not shown) [MolPort-000-773-355]: the inhibition at 1 µM was 0%.

In the case of `Cc1c(-c2ccccc2)c(=O)oc2cc(OS(=O)(=O)c3ccc(Br)cc3)ccc12` [MolPort-000-479-802], the inhibition at 1 µM stood at 1.21%.

For the compound `CC(=O)Nc1ccc2c(c1)-c1ccccc1C2=O` [MolPort-001-824-101], the inhibition at 1 µM amounted to 80.5%.

With `Cc1nnc2c(Cc3ccccc3)nc3ccccc3n12` [Molport-002-872-748], the inhibition at 1 µM was 0%.

On to `O=C(Cn1c(=O)oc2ccccc21)Nc1nnc(SCc2ccccc2)s1` [MolPort-001-610-534], for which the inhibition at 1 µM was determined as 0%.

Take `CCc1ccc(Nc2ncc3c(n2)CC(C)CC3=O)cc1` (stereo not shown) [MolPort-000-511-281]: the inhibition at 1 µM came out at 0%.

On to `Cc1nc(Nc2ncc3c(n2)CC(C)CC3=O)nc2ccccc12` (stereo not shown) [MolPort-000-510-622], for which the inhibition at 1 µM turned out to be 0%.

Consider `CC(=O)NCC1CN(c2ccc(N3CCOCC3)c(F)c2)C(=O)O1` (stereo not shown) [MolPort-002-744-025], for which the inhibition at 1 µM was 4.19%.

Staying with this test, now noted: concentration 10 uM.
As to `Fc1ccc(-c2ccc3c(c2)[nH]c2ccncc23)cn1` [MolPort-044-831-708], the inhibition at 10 µM was determined as 16.5%.

Consider `COc1ccc(C2=NN(C(C)=O)C(c3ccccc3)C2)c(O)c1` (stereo not shown) [MolPort-000-773-355], for which the inhibition at 10 µM is 0%.

In the case of `Cc1c(-c2ccccc2)c(=O)oc2cc(OS(=O)(=O)c3ccc(Br)cc3)ccc12` [MolPort-000-479-802], the inhibition at 10 µM came to 5.32%.

As for `CC(=O)Nc1ccc2c(c1)-c1ccccc1C2=O` [MolPort-001-824-101], the inhibition at 10 µM came to 93.7%.

Consider `Cc1nnc2c(Cc3ccccc3)nc3ccccc3n12` [Molport-002-872-748], for which the inhibition at 10 µM came to 0%.

With `O=C(Cn1c(=O)oc2ccccc21)Nc1nnc(SCc2ccccc2)s1` [MolPort-001-610-534], the inhibition at 10 µM stood at 0%.

Regarding `CCc1ccc(Nc2ncc3c(n2)CC(C)CC3=O)cc1` (stereo not shown) [MolPort-000-511-281], the inhibition at 10 µM is 0%.

In the case of `Cc1nc(Nc2ncc3c(n2)CC(C)CC3=O)nc2ccccc12` (stereo not shown) [MolPort-000-510-622], the inhibition at 10 µM amounted to 0%.

For `CC(=O)NCC1CN(c2ccc(N3CCOCC3)c(F)c2)C(=O)O1` (stereo not shown) [MolPort-002-744-025], the inhibition at 10 µM was determined as 0%.

The same test, now with this note: concentration 100 uM.
`Fc1ccc(-c2ccc3c(c2)[nH]c2ccncc23)cn1` [MolPort-044-831-708]: the inhibition at 100 µM is 84.2%.

With `COc1ccc(C2=NN(C(C)=O)C(c3ccccc3)C2)c(O)c1` (stereo not shown) [MolPort-000-773-355], the inhibition at 100 µM stood at 0%.

In the case of `Cc1c(-c2ccccc2)c(=O)oc2cc(OS(=O)(=O)c3ccc(Br)cc3)ccc12` [MolPort-000-479-802], the inhibition at 100 µM was 25.6%.

In the case of `CC(=O)Nc1ccc2c(c1)-c1ccccc1C2=O` [MolPort-001-824-101], the inhibition at 100 µM amounted to 97.8%.

On to `Cc1nnc2c(Cc3ccccc3)nc3ccccc3n12` [Molport-002-872-748], for which the inhibition at 100 µM was 0%.

Take `O=C(Cn1c(=O)oc2ccccc21)Nc1nnc(SCc2ccccc2)s1` [MolPort-001-610-534]: the inhibition at 100 µM was 15.7%.

With `CCc1ccc(Nc2ncc3c(n2)CC(C)CC3=O)cc1` (stereo not shown) [MolPort-000-511-281], the inhibition at 100 µM was determined as 0%.

On to `Cc1nc(Nc2ncc3c(n2)CC(C)CC3=O)nc2ccccc12` (stereo not shown) [MolPort-000-510-622], for which the inhibition at 100 µM was determined as 0%.

Consider `CC(=O)NCC1CN(c2ccc(N3CCOCC3)c(F)c2)C(=O)O1` (stereo not shown) [MolPort-002-744-025], for which the inhibition at 100 µM came out at 43.5%.

Staying with this test, now noted: secondary screen, 10 concentrations from 100 µM, duplicate.
As for `Fc1ccc(-c2ccc3c(c2)[nH]c2ccncc23)cn1` [MolPort-044-831-708], the IC50 came to 23600 nM.

On to `CC(=O)Nc1ccc2c(c1)-c1ccccc1C2=O` [MolPort-001-824-101], for which the IC50 was 600 nM.

The inhibition is the drop in the measured response relative to a control, in per cent. The term IC50 denotes the concentration that gives 50% inhibition.
